In patent US9592214B2, “Compounds for the treatment of autism in a baby child” (INSERM (INSTITUT NATIONAL DE LA SANTE ET DE LA RECHERCHE …, priority 2010, dated 2017):

How the values were obtained:
[1] = test system: Valproate rat model of autism; assay: In vivo EEG recordings in the CA3 area of hippocampus of head-restrained rats; settings: for Integral power spectra of EEG recordings, mean ± S.E.M.: VPA rats with maternal BUM pretreatment, P13-15
Method: (§1) Time-mated female Wistar rats at gestational day E7-8 were housed under standard laboratory conditions. The in utero valproic acid (VPA) rodent model of autism spectrum disorders has been previously described in detail. Briefly, the sodium salt of VPA (Sigma-Aldrich) was dissolved in physiological saline solution to a concentration of 300 mg/ml. Pregnant rats received a single intra-peritoneal dose of 600 mg/kg on gestational day 12 (E12). The control dams received a single similar volume injection of saline at the same gestational time-point. Dams were housed individually and allowed to raise their own litters. The offspring were used for experiments on embryonic day 20 (E20) and postnatal (P) days 0, 2, 4, 7, 15 and 30 (after being weaned at P23). Experiments were carried out on offspring of either sex.
Head-fixed rat pups of age P13-P15 were prepared for extracellular recording under isoflurane anesthesia. The skin and periosteum were removed from the skull, which was then covered by glue and dental cement except for a 4-9 mm^2 window above the somatosensory cortex from one or two hemispheres for the silicon probe penetration (4.0-4.2 mm lateral to midline and 2.2-2.5 mm caudal to bregma) and for the reference electrode (1.0-1.5 mm lateral to midline and 6.0-6.5 mm caudal to bregma). The rat was positioned in the stereotaxic apparatus. A 1 mm-diameter burr hole was drilled in the skull; the dura was cut and removed. Recordings were made 1 h after recovery from anesthesia. Pups were kept restrained for <3 h and were closely monitored for signs of stress and to ensure that they spent a normal proportion of their time sleeping. The outside temperature was maintained between 35 and 36° C. The animals were kept in low-light conditions throughout all experiments. 16-site linear silicone probe (NeuroNexus Technologies) coupled to a direct-current amplifier (Molecular Devices) and dunked previously in fluorescent dye (DiI, Invitrogen) was slowly penetrated via the hole at […] depth under the angle 30° in the coronal plane. EEGs were recorded during 2 hours, using a 16-channel amplifier (A-M System, Inc.) and digitized at 5 kHz using Axoscope software (Molecular Deviced). Recordings were amplified and high-pass filtered at 0.3 Hz in Axoscope. Silicone probe location was verified postmortem via dye localization. To quantify the frequency band integral power the traces were band-pass filtered at frequency bands […]) θ-(4-7 Hz), α-(7-12 Hz), β-(12-25 Hz), Low γ-(25-60 Hz), High γ-(60-120 Hz) and Fast oscillations-(120-500 Hz)). Fast Fourier Transform (FFT) was applied with Clampfit (Molecular Devices). Integrals of FFT power spectra were taken and averaged with OriginPro (OriginLab Corporation).
(§2) Bumetanide (10 μM), Oxytocin (1 μM) and Isoguvacine (2 μM) were directly added to the perfusion solutions. Bumetanide pretreatment (2-2.5 mg/kg) was given to the dams in drinking water. All drugs used were purchased from Sigma. SSR126768A (Sanofi-Synthelabo) pretreatment (1 mg/kg) was given to the dams in drinking water.

[2] = test system: hippocampal CA3 pyramidal cells; assay: DFGABA in hippocampal CA3 pyramidal cells of offspring after in utero VPA / maternal bumetanide pretreatment; format: in vivo, rat; settings: for DFGABA (mV), mean ± S.E.: P15 VPA rats, maternal bumetanide pretreatment (2-2.5 mg/kg in drinking water, 1 day before delivery)
Method: as §1
Experiments were performed on fetuses and neonatal rat pups. We removed E20 rats from deeply anesthetized dams [subcutaneous injection of a mixture of xylazine (Rompun 2%; used at 0.05%) and ketamine (Imalgene 1000 used at 50 g/l)]. Hippocampal slices ([…] thick) were prepared using a Microm tissue slicer (International GmbH, Germany) as described previously (Tyzio et al. 2006 Science 314, 1788; Tyzio et al, 2008, Eur J. Neurosci. 27(10):2515-28). Slices were kept in oxygenated (95% O2/5% CO2) artificial cerebrospinal fluid (ACSF) of the following composition (in mM): NaCl 126, KCl 3.5, CaCl2 2.0, MgCl2 1.3, NaHCO3 25, NaH2PO4 1.2 and glucose 11 (pH 7.4) at room temperature (20-22° C.) at least 1 hour before use.
For recordings, slices were placed into a conventional fully submerged chamber superfused with ACSF at a rate of 2-3 ml/min at room temperature. Patch clamp recordings from visually identified CA3 pyramidal cells in cell-attached configuration were performed using EPC-10 amplifier (HEKA Elektronik Dr. Schulze GmbH, Lambrecht/Pfalz, Germany). Patch pipette solution for recordings of single GABAA channels contained (in mM): NaCl 120, KCl 5, TEA-Cl 20, 4-aminopyridine 5, CaCl2 0.1, MgCl2 10, glucose 10, Hepes-NaOH 10 buffered to pH 7.2-7.3 and GABA 2 μM. Analysis of currents through single channels and current-voltage relationships were performed using Clampfit 9.2 (Axon Instruments, Union City, Calif.). Recordings were digitized (10 kHz) online with Digidata-1200 interface card (Axon Instruments, Union City, Calif.) and analyzed offline with Axon package, MiniAnalysis (S (Synaptsoft, Decatur, Ga.), and Origin (Microcal Software, Northampton, Mass.).
as §2
If the polarity of GABA actions at delivery produces long terms effects in offsprings, then restoring low [Cl^−]i and inhibitory GABA at delivery might restore physiological parameters in juvenile rodents. To test this hypothesis, pregnant females were treated orally 1 day before delivery with bumetanide (2-2.5 mg/kg in drinking water) and juvenile offspring neurons recorded at P15. […] In VPA rats, GABAergic inputs are excitatory and contribute to hyperexcitability of the network. Bumetanide decreases [Cl^−]i and consequently reduces contribution of excitatory GABAergic inputs in the overall network activity.

## CCCCNc1cc(C(=O)O)cc(S(N)(=O)=O)c1Oc1ccccc1 [bumetanide]
[1]; P13-P15 VPA offspring, maternal bumetanide pretreatment, result in words
  EEG oscillatory hyperactivity and power of network oscillations: abolished hyperactivity and restored physiological values
[1]; frequency band 0.5-4 Hz
  Integral power spectra of EEG recordings, mean ± S.E.M.: 88.53 ± 27.57
[1]; frequency band 4-7 Hz
  Integral power spectra of EEG recordings, mean ± S.E.M.: 15.40 ± 4.25
[1]; frequency band 7-12 Hz
  Integral power spectra of EEG recordings, mean ± S.E.M.: 7.09 ± 1.56
[1]; frequency band 12-25 Hz
  Integral power spectra of EEG recordings, mean ± S.E.M.: 6.35 ± 1.52
[1]; frequency band 25-60 Hz
  Integral power spectra of EEG recordings, mean ± S.E.M.: 0.97 ± 0.20
[1]; frequency band 60-120 Hz
  Integral power spectra of EEG recordings, mean ± S.E.M.: 0.32 ± 0.06
[1]; frequency band 120-500 Hz
  Integral power spectra of EEG recordings, mean ± S.E.M.: 1.18 ± 0.19
[2]; P15 VPA offspring, maternal bumetanide pretreatment, result in words
  DFGABA values in offsprings: restored control DFGABA values
[2]
  DFGABA (mV), mean ± S.E.: 0.4±1.1 mV
[2]; listed as BUM
  DFGABA (mV), mean ± S.E.: 0.4 ± 1.1 (n = 58) mV
